Data: patent publication US6670407B2, “Biofunctional polymers prepared in supercritical fluid” (University of Nottingham, priority 1997, dated 2003)

Experiment: hydrogen peroxide decomposition assay of catalase recovered from PLGA matrices
Type: biochemical
Conditions: catalase removed from PLGA matrices by degradation of the polymer; processed in supercritical CO2 at 45° C. and 200 bar, 30 minutes
Procedure: In a specific example of the use of the invention particles of the protein catalase (ca mean diameter 50 micron) are mixed with the biodegradable polymer poly(DL-lactide-co-glycolide) (PLGA) as per example 3, in the presence of super critical CO2 at 45° C. and 200 bar. After agitation for 30 minutes, the autoclave was depressurized leading to solid dispersions of a monolith form, in which catalase particles are intimately mixed with the biodegradable polymer. FIGS. 3a) and 3b) are scanning electron microscopy images at respective higher and lower magnifications of 10 micron (particles and micropores visible) and 50 micron (particles embedded in “channels”).
Removal of the catalase from the matrices by degradation of the polymer enabled the activity of the enzyme to be quantified using a hydrogen peroxide decomposition assay.

With catalase the “activity of the enzyme after SCF processing” value was “lost no appreciable activity”.
